The text below walks through data of ChEMBL document CHEMBL4145694 (J Med Chem, 2018).

In test [1] the target is Mu-type opioid receptor (Homo sapiens) (UniProt P35372). Description: Agonist activity at human mu-opioid receptor expressed in CHO cell membranes assessed as stimulation of [35S]GTPgammaS binding at 10 uM incubated for 60 mins by scintillation counting method. The format is functional.
The target of test [2] is Delta-type opioid receptor (Homo sapiens) (UniProt P41143). Description: Agonist activity at human delta-opioid receptor expressed in CHO cell membranes assessed as stimulation of [35S]GTPgammaS binding at 10 uM incubated for 60 mins by scintillation counting method. In kind it is functional.
For test [3], the target named is Kappa-type opioid receptor (Homo sapiens) (UniProt P41145). Description: Agonist activity at human kappa-opioid receptor expressed in CHO cell membranes assessed as stimulation of [35S]GTPgammaS binding at 10 uM incubated for 60 mins by scintillation counting method. The format is functional.
The target in test [4] is Mu-type opioid receptor (Homo sapiens) (UniProt P35372). Briefly: Antagonist activity at human mu-opioid receptor expressed in CHO cell membranes assessed as inhibition of DAMGO-induced [35S]GTPgammaS binding incubated for 60 mins by scintillation counting method. In kind it is functional.
Test [5] has as its target Kappa-type opioid receptor (Homo sapiens) (UniProt P41145). Briefly: Antagonist activity at human kappa-opioid receptor expressed in CHO cell membranes assessed as inhibition of U69593-induced [35S]GTPgammaS binding incubated for 60 mins by scintillation counting method. The format is functional.
Test [6] is filed under the species Homo sapiens. Briefly: Selectivity index, ratio of Ke for antagonist activity at human mu-opioid receptor expressed in CHO cell membranes to Ke for antagonist activity at human kappa-opioid receptor expressed in CHO cell membranes. The format is cell-based.
For test [7], the target named is Delta-type opioid receptor (Homo sapiens) (UniProt P41143). Description: Antagonist activity at human delta-opioid receptor expressed in CHO cell membranes assessed as inhibition of DPDPE-induced [35S]GTPgammaS binding incubated for 60 mins by scintillation counting method. The format is functional.
Test [8] is filed under the species Homo sapiens. Briefly: Selectivity index, ratio of Ke for antagonist activity at human delta-opioid receptor expressed in CHO cell membranes to Ke for antagonist activity at human kappa-opioid receptor expressed in CHO cell membranes. In kind it is cell-based.

Active and inactive are the calls of the source. The rule behind the calls is not given here.

Chain of Kappa-type opioid receptor (Homo sapiens) (P41145 whole entry): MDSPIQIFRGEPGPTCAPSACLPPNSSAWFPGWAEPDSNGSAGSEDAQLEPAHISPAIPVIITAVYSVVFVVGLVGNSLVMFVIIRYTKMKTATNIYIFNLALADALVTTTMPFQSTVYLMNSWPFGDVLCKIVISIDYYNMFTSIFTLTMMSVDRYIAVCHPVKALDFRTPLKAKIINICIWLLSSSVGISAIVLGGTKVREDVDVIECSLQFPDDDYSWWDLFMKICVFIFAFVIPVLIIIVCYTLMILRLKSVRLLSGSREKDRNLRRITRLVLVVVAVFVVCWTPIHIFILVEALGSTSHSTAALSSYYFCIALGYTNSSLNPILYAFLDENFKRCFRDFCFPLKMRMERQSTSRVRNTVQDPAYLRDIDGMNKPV
Chain of Delta-type opioid receptor (Homo sapiens) (P41143 whole entry): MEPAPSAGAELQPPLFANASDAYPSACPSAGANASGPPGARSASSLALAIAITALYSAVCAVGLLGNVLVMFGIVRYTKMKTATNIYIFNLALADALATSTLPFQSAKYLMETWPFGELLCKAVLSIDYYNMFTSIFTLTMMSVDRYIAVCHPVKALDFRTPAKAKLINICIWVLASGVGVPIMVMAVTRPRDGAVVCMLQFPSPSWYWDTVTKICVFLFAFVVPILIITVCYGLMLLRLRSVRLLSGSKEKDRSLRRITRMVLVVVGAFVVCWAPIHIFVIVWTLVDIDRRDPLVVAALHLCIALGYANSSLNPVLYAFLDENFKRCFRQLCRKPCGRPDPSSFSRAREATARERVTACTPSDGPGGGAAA
Chain of Mu-type opioid receptor (Homo sapiens) (P35372 whole entry): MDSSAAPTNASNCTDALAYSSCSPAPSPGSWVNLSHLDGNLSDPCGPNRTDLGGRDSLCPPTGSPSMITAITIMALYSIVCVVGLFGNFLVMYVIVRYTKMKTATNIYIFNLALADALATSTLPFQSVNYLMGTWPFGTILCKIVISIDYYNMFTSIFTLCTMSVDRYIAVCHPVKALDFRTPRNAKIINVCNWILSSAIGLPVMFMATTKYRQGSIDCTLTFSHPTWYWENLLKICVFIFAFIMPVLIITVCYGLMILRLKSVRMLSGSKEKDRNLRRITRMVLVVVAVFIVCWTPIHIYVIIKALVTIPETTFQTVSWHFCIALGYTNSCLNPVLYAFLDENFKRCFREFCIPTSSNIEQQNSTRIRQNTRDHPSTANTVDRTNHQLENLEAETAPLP

As to `CC(C)[C@@H](CN1CC=CCC1)NC(=O)[C@H]1Cc2ccc(O)cc2CN1`, the outcome in test [1], in test [2] and in test [3] was inactive.
As for `CC(C)[C@@H](CN1CCC(C(F)(F)F)CC1)NC(=O)[C@H]1Cc2ccc(O)cc2CN1`, the Ke was determined as 67.9 nM in test [4] and 4.69 nM in test [5]. For the same molecule, the Ratio Ke in the test listed under Homo sapiens [6] stood at 14. Also, the result in test [1], in test [2] and in test [3] was inactive.
Turning to `CC1=C(C)CN(C[C@@H](NC(=O)[C@H]2Cc3ccc(O)cc3CN2)C(C)C)CC1`, the result in test [1], in test [2] and in test [3] was inactive.
Turning to `COC1CCN(C[C@@H](NC(=O)[C@H]2Cc3ccc(O)cc3CN2)C(C)C)CC1`, the Ke in test [4] stood at 198 nM; in test [5], 6.53 nM. In addition, the Ratio Ke in the test listed under Homo sapiens [6] turned out to be 30. Also, the outcome in test [1], in test [2] and in test [3] was inactive.
Turning to `CC1CCN(C[C@H](NC(=O)[C@@H]2Cc3ccc(O)cc3CN2)C(C)C)CC1`, the Ke in test [7] was > 3000 nM. The result in test [1], in test [2] and in test [3] was inactive.
For `CC(C)[C@@H](CN1CCCCCC1)NC(=O)[C@H]1Cc2ccc(O)cc2CN1`, the result in test [1], in test [2] and in test [3] was inactive.
As to `CC(C)[C@@H](CN1CCC(N(C)C)CC1)NC(=O)[C@H]1Cc2ccc(O)cc2CN1`, the Ke in test [4] worked out at 318 nM; in test [5] it was 8.08 nM. Further, the Ratio Ke in the test listed under Homo sapiens [6] was 39. Moreover, the outcome in test [1], in test [2] and in test [3] was inactive.
For the molecule `CC(C)[C@@H](CN1CCC(F)(F)CC1)NC(=O)[C@H]1Cc2ccc(O)cc2CN1`, the Ke in test [4] was found to be 604 nM; in test [5], 11.8 nM. In addition, the Ratio Ke in the test listed under Homo sapiens [6] was 51. The outcome in test [1], in test [2] and in test [3] was inactive.
Regarding `CC1=CCCN(C[C@@H](NC(=O)[C@H]2Cc3ccc(O)cc3CN2)C(C)C)C1`, the outcome in test [1], in test [2] and in test [3] was inactive.
With `CC1=CCN(C[C@@H](NC(=O)[C@H]2Cc3ccc(O)cc3CN2)C(C)C)CC1`, the result in test [1], in test [2] and in test [3] was inactive.
With `CCN(CC)C[C@@H](NC(=O)[C@H]1Cc2ccc(O)cc2CN1)C(C)C`, in the test listed under Homo sapiens [6], the Ratio Ke is 16.5. Moreover, the outcome in test [1], in test [2] and in test [3] was inactive.
On to `CCCN(CCC)C[C@@H](NC(=O)[C@H]1Cc2ccc(O)cc2CN1)C(C)C`, for which the outcome in test [1], in test [2] and in test [3] was inactive.
With `CC(C)[C@@H](CN1C2CCC1CC2)NC(=O)[C@H]1Cc2ccc(O)cc2CN1`, the outcome in test [1], in test [2] and in test [3] was inactive.
For `O=C(NCCN1CCCCC1)[C@H]1Cc2ccc(O)cc2CN1`, the outcome in test [1], in test [2] and in test [3] was inactive.
`CC(C)CN(CC(C)C)C[C@@H](NC(=O)[C@H]1Cc2ccc(O)cc2CN1)C(C)C`: the Ke in test [5] is 137 nM. Besides, the result in test [1], in test [2] and in test [3] was inactive.
`CC(C)[C@@H](CN1CCCCC1)NC(=O)[C@H]1Cc2ccc(O)cc2CN1`: the outcome in test [1], in test [2] and in test [3] was inactive.
Turning to `CC(C)[C@@H](CN1CC[C@@H](C)[C@@H](C)C1)NC(=O)[C@H]1Cc2ccc(O)cc2CN1` (mixture of isomers), the outcome in test [1], in test [2] and in test [3] was inactive.
`CC(C)[C@@H](CN1CCCCC1=O)NC(=O)[C@H]1Cc2ccc(O)cc2CN1`: the outcome in test [1], in test [2] and in test [3] was inactive.
On to `CC(C)[C@@H](CN1CCCC1)NC(=O)[C@H]1Cc2ccc(O)cc2CN1`, for which the result in test [1], in test [2] and in test [3] was inactive.
Turning to `CC1CCN(C[C@H](NC(=O)[C@H]2Cc3ccc(O)cc3CN2)C(C)C)CC1`, in test [7], the Ke was > 3000 nM. Moreover, the result in test [1], in test [2] and in test [3] was inactive.
In the case of `CC1CCN(C[C@@H](NC(=O)[C@H]2Cc3ccc(O)cc3CN2)C2CC2)CC1`, the outcome in test [1], in test [2] and in test [3] was inactive.
On to `CC(C)[C@@H](CN1CC[C@H](C)[C@@H](C)C1)NC(=O)[C@H]1Cc2ccc(O)cc2CN1` (mixture of isomers), for which the outcome in test [1], in test [2] and in test [3] was inactive.
In the case of `CC1CC(C)CN(C[C@@H](NC(=O)[C@H]2Cc3ccc(O)cc3CN2)C(C)C)C1` (some centres undefined), the result in test [1], in test [2] and in test [3] was inactive.
For `CC1CCN(C[C@@H](NC[C@H]2Cc3ccc(O)cc3CN2)C(C)C)CC1`, the result in test [1], in test [2] and in test [3] was inactive.
In the case of `CC1CCN(C[C@@H](NC(=O)c2ccc3cc(O)ccc3c2)C(C)C)CC1`, the outcome in test [1], in test [2] and in test [3] was inactive.
In the case of `CC(C)[C@@H](CN1CC[C@@](C)(c2cccc(O)c2)[C@@H](C)C1)NC(=O)[C@H]1Cc2ccc(O)cc2CN1C`, the Ratio Ke in the test listed under Homo sapiens [6] is 1310; in the test listed under Homo sapiens [8] it was 3070.
Consider `CC1CCN(C[C@@H](NC(=O)[C@H](N)Cc2ccc(O)cc2)C(C)C)CC1`, for which the outcome in test [1], in test [2] and in test [3] was inactive.
For `CC1CCN(C[C@@H](NC(=O)[C@@H]2CCc3cc(O)ccc3C2)C(C)C)CC1`, the outcome in test [1], in test [2] and in test [3] was inactive.
As to `CC(C)[C@@H](CN1CCC(C(F)F)CC1)NC(=O)[C@H]1Cc2ccc(O)cc2CN1`, the Ke in test [4] was determined as 70.9 nM; in test [5] it was 3.45 nM. The outcome in test [1], in test [2] and in test [3] was inactive.
For `CC(C)[C@@H](CN1CCCCC1C)NC(=O)[C@H]1Cc2ccc(O)cc2CN1` (mixture of isomers), the Ke in test [4] worked out at 44.9 nM; in test [5] it was 15.1 nM. In addition, the Ratio Ke in the test filed under Homo sapiens [6] was found to be 3. Moreover, the result in test [1], in test [2] and in test [3] was inactive.
With `CC(C)[C@@H](CN1CCC(C(N)=O)CC1)NC(=O)[C@H]1Cc2ccc(O)cc2CN1`, the results for the Ke in test [4] and in test [5] were 129 nM and 3.22 nM, respectively. In addition, in the test filed under Homo sapiens [6], the Ratio Ke turned out to be 40. The result in test [1], in test [2] and in test [3] was inactive.
Regarding `CC1CCCN(C[C@@H](NC(=O)[C@H]2Cc3ccc(O)cc3CN2)C(C)C)C1` (mixture of isomers), the result in test [1], in test [2] and in test [3] was inactive.
As for `CC(C)[C@@H](CN1CCC(C#N)CC1)NC(=O)[C@H]1Cc2ccc(O)cc2CN1`, the Ke in test [4] is 647 nM; in test [5] it was 12.7 nM. The Ratio Ke in the test listed under Homo sapiens [6] turned out to be 51. Also, the result in test [1], in test [2] and in test [3] was inactive.
Turning to `CC1CCN(C[C@@H](NC(=O)[C@@H]2Cc3ccc(O)cc3CN2)C(C)C)CC1`, the Ke in test [7] is > 3000 nM. The outcome in test [1], in test [2] and in test [3] was inactive.
Regarding `CC(C)[C@@H](CN1CCN(C)CC1)NC(=O)[C@H]1Cc2ccc(O)cc2CN1`, the Ke in test [4] is 915 nM; in test [5], 98.8 nM. In addition, the Ratio Ke in the test filed under Homo sapiens [6] stood at 9. In addition, the outcome in test [1], in test [2] and in test [3] was inactive.
For `CC(C)[C@@H](CN1CCOCC1)NC(=O)[C@H]1Cc2ccc(O)cc2CN1`, in test [5], the Ke amounted to 396 nM. Besides, the outcome in test [1], in test [2] and in test [3] was inactive.
